pIC50: −log10 of the molar value.

As usually defined, the inhibition is the percentage by which the read-out fell short of the control. What is called pIC50 is the IC50 on a negative log10 scale, so that one unit is a factor of ten. Read a high pIC50 as a small IC50.

T1 sequence (Q9Y2I7 whole entry): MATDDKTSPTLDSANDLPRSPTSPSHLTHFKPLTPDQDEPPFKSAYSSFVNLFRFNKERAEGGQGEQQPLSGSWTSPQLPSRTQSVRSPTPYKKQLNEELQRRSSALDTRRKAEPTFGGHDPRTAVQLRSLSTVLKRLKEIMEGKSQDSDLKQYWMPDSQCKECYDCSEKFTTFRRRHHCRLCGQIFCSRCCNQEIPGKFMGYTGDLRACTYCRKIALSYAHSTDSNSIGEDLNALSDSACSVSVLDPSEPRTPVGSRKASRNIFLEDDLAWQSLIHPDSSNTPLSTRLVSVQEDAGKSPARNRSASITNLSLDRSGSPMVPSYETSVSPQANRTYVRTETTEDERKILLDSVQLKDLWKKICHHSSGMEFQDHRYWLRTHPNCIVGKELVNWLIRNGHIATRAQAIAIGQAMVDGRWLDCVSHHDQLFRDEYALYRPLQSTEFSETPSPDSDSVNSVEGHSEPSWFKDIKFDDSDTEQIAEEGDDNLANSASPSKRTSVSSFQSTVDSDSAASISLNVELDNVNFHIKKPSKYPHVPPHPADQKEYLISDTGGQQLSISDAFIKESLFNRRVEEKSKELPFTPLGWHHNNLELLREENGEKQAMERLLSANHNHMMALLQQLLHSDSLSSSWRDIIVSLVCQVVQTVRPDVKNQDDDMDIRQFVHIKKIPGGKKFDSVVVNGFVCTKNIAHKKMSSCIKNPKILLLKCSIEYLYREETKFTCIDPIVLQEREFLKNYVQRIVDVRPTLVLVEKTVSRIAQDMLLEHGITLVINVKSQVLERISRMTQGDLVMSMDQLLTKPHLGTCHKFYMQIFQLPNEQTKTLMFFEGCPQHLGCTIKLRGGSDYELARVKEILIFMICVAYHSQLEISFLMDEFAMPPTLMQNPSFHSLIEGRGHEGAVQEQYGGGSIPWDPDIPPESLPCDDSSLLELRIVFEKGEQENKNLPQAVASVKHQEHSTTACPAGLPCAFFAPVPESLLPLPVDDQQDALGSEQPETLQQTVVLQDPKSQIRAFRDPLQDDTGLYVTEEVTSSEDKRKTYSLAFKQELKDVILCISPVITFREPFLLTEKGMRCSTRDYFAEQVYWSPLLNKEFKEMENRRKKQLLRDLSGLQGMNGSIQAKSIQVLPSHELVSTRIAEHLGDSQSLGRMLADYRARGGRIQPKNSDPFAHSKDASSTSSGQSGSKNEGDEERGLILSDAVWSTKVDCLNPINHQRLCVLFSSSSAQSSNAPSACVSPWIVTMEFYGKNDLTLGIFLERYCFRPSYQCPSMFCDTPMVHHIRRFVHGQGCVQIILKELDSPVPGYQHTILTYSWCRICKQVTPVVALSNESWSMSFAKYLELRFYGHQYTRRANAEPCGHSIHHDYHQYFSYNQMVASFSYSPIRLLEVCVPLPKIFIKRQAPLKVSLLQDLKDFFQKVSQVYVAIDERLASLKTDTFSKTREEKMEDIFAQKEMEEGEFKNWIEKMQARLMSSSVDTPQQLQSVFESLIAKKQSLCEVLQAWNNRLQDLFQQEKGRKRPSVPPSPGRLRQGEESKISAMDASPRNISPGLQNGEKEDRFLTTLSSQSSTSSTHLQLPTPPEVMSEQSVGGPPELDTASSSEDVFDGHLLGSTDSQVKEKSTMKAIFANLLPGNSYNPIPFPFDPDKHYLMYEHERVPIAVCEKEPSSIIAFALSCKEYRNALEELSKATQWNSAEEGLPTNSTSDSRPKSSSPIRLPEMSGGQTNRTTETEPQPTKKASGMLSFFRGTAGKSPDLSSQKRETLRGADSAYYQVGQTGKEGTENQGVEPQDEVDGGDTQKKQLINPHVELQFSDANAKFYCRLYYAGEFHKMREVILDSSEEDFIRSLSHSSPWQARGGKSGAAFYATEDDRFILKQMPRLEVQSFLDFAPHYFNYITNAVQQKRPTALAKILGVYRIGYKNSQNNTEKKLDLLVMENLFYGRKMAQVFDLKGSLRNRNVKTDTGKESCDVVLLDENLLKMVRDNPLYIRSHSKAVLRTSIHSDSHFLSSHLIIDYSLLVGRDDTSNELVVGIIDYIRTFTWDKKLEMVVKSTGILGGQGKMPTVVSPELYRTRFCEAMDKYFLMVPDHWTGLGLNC

The first test concerns the target T1, PIKFYVE (Homo sapiens, UniProt Q9Y2I7).
T1 construct: purchased Eurofins (KINOMEscan); host or cells: E. coli BL21-derived (T7 phage display) or HEK-293
In words: KINOMEscan Kinase Assay (Eurofins), PIKFYVE inhibitory activity. The class given is binding. The note with it: @ 1 nM.
Turning to `Cc1cccc(-c2ccn(-c3nc(N4CCOCC4)c4sc(CO)c(C)c4n3)n2)c1` [Ex. 53, (7-methyl-4-morpholino-2-(3-(m-tolyl)-1H-pyrazol-1-yl)thieno[3,2-d]pyrimidin-6-yl)methanol], the inhibition at 0.001 µM came to 17%.
For the molecule `Cc1cccc(-c2ccn(-c3nc(N4CCOCC4)c4nc(CN5CCN(C)CC5)[nH]c4n3)n2)c1` [Ex. 35, 4-(8-((4-methylpiperazin-1-yl)methyl)-2-(3-(m-tolyl)-1H-pyrazol-1-yl)-9H-purin-6-yl)morpholine], 0.001 µM produced 13% inhibition.

The same test, now with this note: @ 3 nM.
Molecule `Cc1cccc(-c2ccn(-c3nc(N4CCOCC4)c4sc(N5CCN(S(C)(=O)=O)CC5)cc4n3)n2)c1` [Ex. 165, 4-(6-(4-(methylsulfonyl)piperazin-1-yl)-2-(3-(m-tolyl)-1H-pyrazol-1-yl)thieno[3,2-d]pyrimidin-4-yl)morpholine] showed an inhibition at 0.003 µM of 22%.

The same test, now with this note: KINOMEscan.
As to `Cc1cccc(-c2ccn(-c3nc(N4CCOCC4)c4sc(C(=O)N5CC[C@H](N(C)C)C5)cc4n3)n2)c1` [Ex. 24, (S)-(3-(dimethylamino)pyrrolidin-1-yl)(4-morpholino-2-(3-(m-tolyl)-1H-pyrazol-1-yl)thieno[3,2-d]pyrimidin-6-yl)methanone], the pIC50 was more than 9.00.
`Cc1cccc(-c2ccn(-c3nc(N4CCOCC4)c4sc(CN5CCN(C)CC5)cc4n3)n2)c1` [Ex. 31, 4-(6-((4-methylpiperazin-1-yl)methyl)-2-(3-(m-tolyl)-1H-pyrazol-1-yl)thieno[3,2-d]pyrimidin-4-yl)morpholine] showed a pIC50 of 8.00 to 9.00.
Turning to `Cc1cccc(-c2ccn(-c3cc(N4CCOCC4)c4nc(CO)n(C)c4n3)n2)c1` [Ex. 75, (3-methyl-7-morpholino-5-(3-(m-tolyl)-11H-pyrazol-1-yl)-3H-imidazo[4,5-b]pyridin-2-yl)methanol], the pIC50 is 8.00 to 9.00.
In turn, `Cc1cccc(-c2ccn(-c3nc(N4CCOCC4)c4nc(CN5CCOCC5)sc4n3)n2)c1` [Ex. 30, 4-((7-morpholino-5-(3-(m-tolyl)-1H-pyrazolyl)thiazolo[5,4-d]pyrimidin-2-yl)methyl)morpholine] showed a pIC50 of 8.00 to 9.00.
`Cc1cccc(-c2ccn(-c3nc(N4CCOCC4)c4nc(CN5CC(N6CCCC6)C5)[nH]c4n3)n2)c1` [Ex. 36, 4-(8-((3-(pyrrolidin-1-yl)azetidin-1-yl)methyl)-2-(3-(m-tolyl)-1H-pyrazol-1-yl)-9H-purin-6-yl)morpholine] had a pIC50 of more than 9.00.
Molecule `Cc1cccc(-c2ccn(-c3nc(N4CCOCC4)c4nc(CN5CCC(N(C)C)CC5)[nH]c4n3)n2)c1` [Ex. 15, N,N-dimethyl-1-((6-morpholino-2-(3-(m-tolyl)-1H-pyrazol-1-yl)-9H-purin-8-yl)methyl)piperidin-4-amine] gave a pIC50 of more than 9.00.
As for `Cc1cccc(-c2ccn(-c3nc(N4CCOCC4)c4sc(C(=O)N5CC[C@@H](N(C)C)C5)cc4n3)n2)c1` [Ex. 21, (R)-(3-(dimethylamino)pyrrolidin-1-yl)(4-morpholino-2-(3-(m-tolyl)-1H-pyrazol-1-yl)thieno[3,2-d]pyrimidin-6-yl)methanone], the pIC50 is more than 9.00.
On the same count and under the same terms, with `Cc1cccc(-c2ccn(-c3nc(N4CC5CC4CO5)c4sc(CN5CCN(S(C)(=O)=O)CC5)cc4n3)n2)c1` (centres unmarked) [Ex. 73, 5-(6-((4-(methylsulfonyl)piperazin-1-yl)methyl)-2-(3-(m-tolyl)-1H-pyrazol-1-yl)thieno[3,2-d]pyrimidin-4-yl)-2-oxa-5-azabicyclo[2.2.1]heptane] the figure was 7.00 to 8.00; with `Cc1cccc(-c2ccn(-c3nc(N4CCOCC4)c4sc(CN5CC[C@@H](N(C)C)C5)cc4n3)n2)c1` [Ex. 18, (R)—N,N-dimethyl-1-((4-morpholino-2-(3-(m-tolyl)-1H-pyrazol-1-yl)thieno[3,2-d]pyrimidin-6-yl)methyl)pyrrolidin-3-amine], more than 9.00.
Consider `Cc1cccc(-c2ccn(-c3nc(N4CCCOCC4)c4sc(CN5CCN(S(C)(=O)=O)CC5)cc4n3)n2)c1` [Ex. 71, 4-(6-((4-(methylsulfonyl)piperazin-1-yl)methyl)-2-(3-(m-tolyl)-1H-pyrazol-1-yl)thieno[3,2-d]pyrimidin-4-yl)-1,4-oxazepane], for which the pIC50 is 7.00 to 8.00.
For the molecule `COC(C)(C)c1sc2c(N3CCOCC3)nc(-n3ccc(-c4cccc(C)c4)n3)nc2c1C` [Ex. 64, 4-(6-(2-methoxypropan-2-yl)-7-methyl-2-(3-(m-tolyl)-1H-pyrazol-1-yl)thieno[3,2-d]pyrimidin-4-yl)morpholine], the pIC50 is 8.00 to 9.00.
On to `Cc1cccc(-c2ccn(-c3nc(N4CCOCC4)c4sc(-c5cnn(C)c5)cc4n3)n2)c1` [Ex. 37, 4-(6-(1-methyl-1H-pyrazol-4-yl)-2-(3-(m-tolyl)-1H-pyrazol-1-yl)thieno[3,2-d]pyrimidin-4-yl)morpholine], for which the pIC50 was more than 9.00.
`Cc1cccc(-c2ccn(-c3nc(N4CCOCC4)c4sc(CN5CCC(N(C)C)CC5)cc4n3)n2)c1` [Ex. 4, N, N-dimethyl-1-((4-morpholino-2-(3-(m-tolyl)-1H-pyrazol-1-yl)thieno[3,2-d]pyrimidin-6-yl)methyl)piperidin-4-amine] showed a pIC50 of more than 9.00.
Still for that read-out and setting: then `Cc1cccc(-c2ccn(-c3nc(N4CCOCC4)c4nc(CN5CCN(S(C)(=O)=O)CC5)[nH]c4n3)n2)c1` [Ex. 10, 4-(8-((4-(methylsulfonyl)piperazin-1-yl)methyl)-2-(3-(m-tolyl)-1H-pyrazol-1-yl)-9H-purin-6-yl)morpholine], with more than 9.00.
The same measure, in the same setting: then `Cc1cccc(-c2ccn(-c3nc(N4CCOCC4)c4sc(CN5CCC(N6CCOCC6)CC5)cc4n3)n2)c1` [Ex. 33, 4-(1-((4-morpholino-2-(3-(m-tolyl)-1H-pyrazol-1-yl)thieno[3,2-d]pyrimidin-6-yl)methyl)piperidin-4-yl)morpholine], with less than 7.00.
Same read-out and setting: with `Cc1cccc(-c2ccn(-c3cc(N4CCOCC4)c4nc(CN5CCN(S(C)(=O)=O)CC5)[nH]c4n3)n2)c1` [Ex. 27, 4-(2-((4-(methylsulfonyl)piperazin-1-yl)methyl)-5-(3-(m-tolyl)-1H-pyrazol-1-yl)-3H-imidazo[4,5-b]pyridin-7-yl)morpholine] the figure was more than 9.00; with `Cc1cccc(-c2ccn(-c3nc(N4CCOCC4)c4nc(CN5CCN(S(C)(=O)=O)CC5)sc4n3)n2)c1` [Ex. 9, 4-(2-((4-(methylsulfonyl)piperazin-1-yl)methyl)-5-(3-(m-tolyl)-1H-pyrazol-1-yl)thiazolo[5,4-d]pyrimidin-7-yl)morpholine], 8.00 to 9.00.
For `Cc1cccc(-c2ccn(-c3nc(N4CCOCC4)c4sc(C(C)N5CCC(N(C)C)CC5)cc4n3)n2)c1` (centres unmarked) [Ex. 17, N,N-dimethyl-1-(1-(4-morpholino-2-(3-(m-tolyl)-1H-pyrazol-1-yl)thieno[3,2-d]pyrimidin-6-yl)ethyl)piperidin-4-amine], the pIC50 is more than 9.00.
In the case of `Cc1cccc(-c2ccn(-c3nc(N4CCOCC4)c4sc(CN5CCC(N6CCC6)C(F)C5)cc4n3)n2)c1` (centres unmarked), the pIC50 is more than 9.00.
Consider `Cc1cccc(-c2ccn(-c3nc(N4CCOCC4)c4sc(CN5CC(C6CCOCC6)C5)c(C)c4n3)n2)c1` [Ex. 63, 4-(7-methyl-6-((3-(tetrahydro-2H-pyran-4-yl)azetidin-1-yl)methyl)-2-(3-(m-tolyl)-1H-pyrazol-1-yl)thieno[3,2-d]pyrimidin-4-yl)morpholine], for which the pIC50 was 8.00 to 9.00.
On to `Cc1cccc(-c2ccn(-c3nc(N4CCOCC4)c4nc(-c5cnn(C)c5)[nH]c4n3)n2)c1` [Ex. 44, 4-(8-(1-methyl-1H-pyrazol-4-yl)-2-(3-(m-tolyl)-1H-pyrazol-1-yl)-9H-purin-6-yl)morpholine], for which the pIC50 was more than 9.00.
Still for that read-out and setting: with `Cc1cccc(-c2ccn(-c3nc(N4CCOCC4)c4sc(C(=O)N5CC[C@@H](N(C)C)C5)c(C)c4n3)n2)c1` [Ex. 60, (R)-(3-(dimethylamino)pyrrolidin-1-yl)(7-methyl-4-morpholino-2-(3-(m-tolyl)-1H-pyrazol-1-yl)thieno[3,2-d]pyrimidin-6-yl)methanone] the figure was 8.00 to 9.00.
Take `Cc1cccc(-c2ccn(-c3cc(N4CCOCC4)c4nc(CN5CC[C@@H](N(C)C)C5)[nH]c4n3)n2)c1` [Ex. 41, (R)—N,N-dimethyl-1-((7-morpholino-5-(3-(m-tolyl)-1H-pyrazol-1-yl)-3H-imidazo[4,5-b]pyridin-2-yl)methyl)pyrrolidin-3-amine]: the pIC50 is more than 9.00.
Molecule `Cc1cccc(-c2ccn(-c3nc(N4CCOCC4)c4sc(CN5CCN(S(C)(=O)=O)CC5)c(C)c4n3)n2)c1` [Ex. 54, 4-(7-methyl-6-((4-(methylsulfonyl)piperazin-1-yl)methyl)-2-(3-(m-tolyl)-1H-pyrazol-1-yl)thieno[3,2-d]pyrimidin-4-yl)morpholine] gave a pIC50 of more than 9.00.
Molecule `Cc1cccc(-c2ccn(-c3nc(N4CCOCC4)c4sc(CN5CC(N(C)C)C5)cc4n3)n2)c1` [Ex. 32, N,N-dimethyl-1-((4-morpholino-2-(3-(m-tolyl)-1H-pyrazol-1-yl)thieno[3,2-d]pyrimidin-6-yl)methyl)azetidin-3-amine] gave a pIC50 of more than 9.00.
Same read-out and setting: with `Cc1cccc(-c2ccn(-c3cc(N4CCOCC4)c4sc(CN5CCC(N(C)C)C(F)C5)cc4n3)n2)c1` (centres unmarked) [Ex. 69, 3-fluoro-N,N-dimethyl-1-((7-morpholino-5-(3-(m-tolyl)-1H-pyrazol-1-yl)thieno[3,2-b]pyridin-2-yl)methyl)piperidin-4-amine] the figure was more than 9.00; with `Cc1cccc(-c2ccn(-c3cc(N4CCOCC4)c4nc(CN5CCOCC5)n(C)c4n3)n2)c1` [Ex. 74, 4-(3-methyl-2-(morpholinomethyl)-5-(3-(m-tolyl)-1H-pyrazol-1-yl)-3H-imidazo[4,5-b]pyridin-7-yl)morpholine], more than 9.00.
Still for that read-out and setting: with `Cc1cccc(-c2ccn(-c3cc(N4CCOCC4)c4nc(CN5CCC(N(C)C)CC5)[nH]c4n3)n2)c1` [Ex. 28, N,N-dimethyl-1-((7-morpholino-5-(3-(m-tolyl)-1H-pyrazol-1-yl)-3H-imidazo[4,5-b]pyridin-2-yl)methyl)piperidin-4-amine] the figure was more than 9.00.
On to `Cc1cccc(-c2ccn(-c3nc(N4CCOCC4)c4nc(CN5CCC(C(C)(C)O)CC5)[nH]c4n3)n2)c1` [Ex. 13, 2-(1-((6-morpholino-2-(3-(m-tolyl)-1H-pyrazol-1-yl)-9H-purin-8-yl)methyl)piperidin-4-yl)propan-2-ol], for which the pIC50 is 8.00 to 9.00.
